Like-named read-outs stand apart in the source and are kept apart here.
Tests used:
[1] = target: human FLAP (Homo sapiens (Human), UniProt P20292); assay: FLAP binding assay (HTRF format)
How it was run: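 Read-out is the HTRF ratio. Each reported figure averages two assay plates on which samples were tested in duplicate.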

[2] = test system: leukotriene pathway in human whole blood; assay: Human whole blood assay (LTB4 levels after A23187 stimulation); type: cell-based
Method: The ability of the compounds of the present invention to treat a FLAP-mediated disease and/or disorder, or associated symptoms or complications thereof, was determined using the following procedures. Binding assay data represent the average value obtained from two different assay plates, with samples run in duplicate on each plate. Human whole blood assay data represent a single replicate on an assay plate using whole blood from at least one healthy donor.
An in vitro cellular assay was performed using human whole blood collected in heparin-containing tubes, which was used to test the ability of compounds to modulate the leukotriene pathway in human whole blood. The blood was diluted 1:1 in RPMI medium, pre-incubated for 15 min at 37° Celsius with test compounds at various concentrations, and then stimulated with calcium ionophore, A23187 (7 μg/mL), for 30 min at 37° Celsius. The samples were then centrifuged and plasma was removed. The plasma was diluted in assay buffer and LTB4 levels were measured using a commercial kit (Enzo Life Sciences). The concentration of each compound that was required for half-maximal inhibition (modulation) of recombinant enzyme activity (IC50) was calculated by a 4-parameter equation using the program GraphPad Prism (GraphPad software).

[3] = human FLAP wild type membranes, HTRF format, Table 6 (additional runs)
[4] = human whole blood diluted 1:1 in RPMI, A23187 stimulation, Table 6 (additional runs)
[5] = Homo sapiens, blood diluted 1:1 in RPMI, 15 min pre-incubation, A23187 7 μg/mL for 30 min at 37° Celsius, plasma LTB4
[6] = human FLAP-containing membranes, HTRF ligand 25 nM, 2 h, average of two plates, duplicates, read-out: FLAP Binding wild type HTRF Ki

Sequence of human FLAP (P20292 whole entry): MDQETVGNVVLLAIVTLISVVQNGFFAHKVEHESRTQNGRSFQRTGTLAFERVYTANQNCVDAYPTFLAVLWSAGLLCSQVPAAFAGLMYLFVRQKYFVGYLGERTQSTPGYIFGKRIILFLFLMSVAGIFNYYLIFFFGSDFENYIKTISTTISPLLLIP

Structure (SMILES)	Ki [1, 3]	IC50 [2, 4]	IC50 [2, 5]	Ki [1, 6]
Nc1cnc(-c2ccc(C3CCCC3)c(Oc3ncccn3)c2F)cn1 [Example 337, 5-[4-Cyclopentyl-2-fluoro-3-(pyrimidin-2-yloxy)phenyl]pyrazin-2-amine]	14.8 nM	162 nM		
Nc1cnc(-c2ccc(C3CCC3)c(Oc3ccc(N)nn3)c2F)cn1 [Example 338, 6-[3-(5-Aminopyrazin-2-yl)-6-cyclobutyl-2-fluorophenoxy]pyridazin-3-amine]	1.7 nM	95.9 nM		
Nc1cnc(-c2ccc(C3CCC3)c(OCc3ncccn3)c2F)cn1 [Example 339, 5-[4-Cyclobutyl-2-fluoro-3-(pyrimidin-2-ylmethoxy)phenyl]pyrazin-2-amine]	108 nM	1640 nM		
Nc1cnc(-c2ccc(C3CCC3)c(OCc3ccc(-c4cnc(N)nc4)cc3)c2F)cn1 [Example 341, 5-(4-{[3-(5-Aminopyrazin-2-yl)-6-cyclobutyl-2-fluorophenoxy]methyl}phenyl)pyrimidin-2-amine]	22.6 nM	124 nM		
Nc1cnc(-c2ccc(C3CCC3)c(OCc3ccc(-c4ccc(C(F)(F)F)cc4)cc3)c2F)cn1 [Example 342, 5-(4-Cyclobutyl-2-fluor-3-{[4-(trifluoromethyl)biphenyl-4-yl]methoxy}phenyl)pyrazin-2-amine]	8.1 nM	26.3 nM		
Nc1ncc(-c2ccc(C3CCCCC3)c(Oc3ncccn3)c2F)cn1 [Example 343, 5-[4-Cyclohexyl-2-fluoro-3-(pyrimidin-2-yloxy)phenyl]pyrimidin-2-amine]	5.4 nM	14.4 nM		
Nc1cnc(-c2ccc(C3CCCCC3)c(O)c2F)cn1 [Example 345, 3-(5-Aminopyrazin-2-yl)-6-cyclohexyl-2-fluorophenol]	14.2 nM	15.1 nM		
Nc1cnc(-c2ccc(CC3CCCCC3)c(O)c2F)cn1 [Example 346, 3-(5-Aminopyrazin-2-yl)-6-(cyclohexylmethyl)-2-fluorophenol]	45.3 nM	176 nM		
Nc1cnc(-c2ccc(C3CCC3)c(Oc3ccnc(N)c3)c2F)cn1 [Example 347, 5-{3-[(2-Aminopyridin-4-yl)oxy]-4-cyclobutyl-2-fluorophenyl}pyrazin-2-amine]	47.6 nM	396 nM		
Nc1cnc(-c2ccc(C3CCC3)c(Oc3cncc(N)n3)c2F)cn1 [Example 348, 5-{3-[(6-Aminopyrazin-2-yl)oxy]-4-cyclobutyl-2-fluorophenyl}pyrazin-2-amine]	13.1 nM	147 nM		
Nc1cnc(-c2ccc(C3CCC3)c(Oc3cncnc3)c2F)cn1 [Example 349, 5-[4-Cyclobutyl-2-fluoro-3-(pyrimidin-5-yloxy)phenyl]pyrazin-2-amine]	31 nM	> 1000 nM		
Nc1cnnc(Oc2c(C3CCC3)ccc(-c3cnc(N)cn3)c2F)c1 [Example 350, 6-[3-(5-Aminopyrazin-2-yl)-6-cyclobutyl-2-fluorophenoxy]pyridazin-4-amine]	52.9 nM	449 nM		
CC(C)(C)c1ccc(-c2cnc3[nH]ccc3c2)c(F)c1Oc1ncccn1 [Example 351, 5-[4-tert-Butyl-2-fluoro-3-(pyrimidin-2-yloxy)phenyl]-1H-pyrrolo[2.3-b]pyridine]	54.4 nM	124 nM		
Nc1ncc(-c2ccc(C3CCC3)c(O)c2F)cn1 [Intermediate E, 3-(2-Aminopyrimidin-5-yl)-6-cyclobutyl-2-fluorophenol]	99.5 nM	1100 nM	1100 nM	
CC(C)(C)c1ccc(-c2cnc(N)cn2)c(F)c1O [Intermediate G, 3-(5-Aminopyrazin-2-yl)-6-tert-butyl-2-fluorophenol]		575 nM	575 nM	77.9 nM
CC(C)(C)c1ccc(-c2cnc(N)nc2)c(F)c1O [Intermediate H, 3-(2-Aminopyrimidin-5-yl)-6-tert-butyl-2-fluorophenol]		287 nM	287 nM	72.3 nM

From US9732093B2, “FLAP modulators” (JANSSEN PHARMACEUTICA NV, priority 2013, dated 2017)
